Measured values from US10953026B2, “N-acetyl mannosammine as a therapeutic agent” (THE UNITED STATES OF AMERICA, as represented by the …, priority 2007, dated 2021).
Values joined by “and” are separate entries in the source; they are usually repeats but may differ in a detail not shown here. Identical values can stand only once. “Also recorded” adds a separate entry of the source.

What was measured:
cultured cells = details: incubation of cultured cells; cited from earlier work
Gne^M712T/M712T mice [1] = assay: Electron microscopy of kidney glomeruli after ManNAc treatment; format: in vivo, mouse; details: age P19, versus untreated Gne^M712T/M712T
Experimental: Kidney samples were fixed overnight at 4° C. in 2% glutaraldehyde in 0.1 M cacodylate buffer (pH 7.4) and washed with cacodylate buffer. After postfixation with 1% OsO4 for 2 hours and a second wash with 0.1 M cacodylate buffer, the tissues were serially dehydrated in ethanol and embedded in Eponate 12 resin (Ted Pella). Thin sections (˜80 nm) were obtained using a Leica Ultracut UCT Ultramicrotome (Leica Microsystems), placed onto 400 mesh copper grids, and stained with saturated uranyl acetate in 50% methanol followed by lead citrate. The grids were viewed with a Philips 410 electron microscope (FEI Company) at 80 kV, and images were recorded on Kodak SO-163 film (Kodak).
(§1) Breeding pairs of 6-week-old GneM^712T/+ mice were divided into 3 groups. Group I consisted of 9 GneM^712T/+ breeding pairs, who were administered untreated sterilized tap water. Group II consisted of 1 breeding pair of Gne^+/+ mice (wild-type control) and 6 GneM^712T/+ breeding pairs, who were administered water containing 1 mg/ml (˜0.2 g/kg/day) ManNAc (Sigma-Aldrich). […] Group III consisted of 1 Gne^+/+ breeding pair and 7 GneM^712T/+ breeding pairs, who were administered water supplemented with 5 mg/ml (˜1.0 g/kg/day) ManNAc. Water was changed twice weekly. Nursing females continued to be supplied with ManNAc. All mice were weaned from ManNAc at 21 days. Selected whole litters were euthanized at age P2, P6, and P19 for histological, genetic, biochemical, or ultrastructural analysis.

Gne^M712T/M712T mice [2] = assay: Mouse histology (H&E) after ManNAc treatment; format: in vivo
Experimental: Mouse tissues were collected, formalin fixed (10%) and paraffin embedded. Tissue sections ([…]) were stained with H&E following standard procedures (American Histolabs) or subjected to immunohistochemistry with a variety of primary antibodies. Formalin-fixed tissues were deparaffinized in HistoClear II (National Diagnostics) and […] in a series of ethanol solutions. Antigen retrieval was performed for sections that were to be stained with antibodies against Gne/Mnk (by boiling 5 minutes in citric acid-based solution; Vector Laboratories) and against dystrophin (by boiling in 1 mM EDTA according the manufacturer's protocol; AbCam). The sections were blocked (2% BSA, 10% donkey serum, and 0.1% Triton X-100 in PBS) and incubated with primary antibodies (Gne/Mnk 1:50; laminin 1:25; dystrophin 1:50) overnight at 4° C., followed by incubation with the secondary antibody, Alexa Fluor 488-conjugated donkey anti-rabbit (1:500 in blocking solution) (Invitrogen). The sections were mounted in VECTASHIELD Mounting Medium (Vector Laboratories) and viewed and digitally imaged with a Zeiss Axiovert 200M microscope (Zeiss).
as §1

[3] = test system: Gne-deficient mouse embryonic stem cells; details: growth medium supplemented with ManNAc; cited from earlier work
Gne/Mnk epimerase = assay: Gne-epimerase enzymatic assay in skeletal muscle of ManNAc-treated mice; format: in vivo, mouse
Experimental: as §1
Mouse kidney and skeletal muscle (quadriceps) tissues were homogenized and subjected to the Gne-epimerase enzymatic assay as previously described (11, 58). This assay was based on incubation with radiolabeled substrate (Uridine diphosphate N-acetyl glucosamine [1-^3H]; American Radiolabeled Chemicals Inc.) and detection of radiolabeled product ([^3H]ManNAc) upon separation of oligosaccharides by high-pH anion-exchange chromatography with pulsed amperometric detection (Dionex).

PSA-NCAM = assay: Immunoblots with PSA-NCAM antibodies (sialylation status); format: in vivo, mouse
Text: (§2) A rabbit polyclonal antibody was custom prepared against a Gne/Mnk peptide comprising amino acids 588-607 ([…], SEQ ID NO:8), coupled to keyhole limpet hemocyanine, and affinity purified against the corresponding antigenic peptide (Covance). The following additional primary antibodies were commercially obtained: dystrophin (catalog no. ab15277; Abcam); α-dystroglycan (clone IIH6C4; Upstate Biotechnology); laminin-1 (catalog no. L9393; Sigma-Aldrich); podocalyxin (catalog no. PODX11-A; Alpha Diagnostic International); podocin (catalog no. P0372; Sigma-Aldrich); laminin β1 (catalog no. MAB1928; Millipore); desmin (catalog no. 1466-1; Epitomics); α-SMA (SPM332; GeneTex Inc.); PSA-NCAM (catalog no. MAB5324; Millipore); and β-actin (catalog no. AAN01; Cytoskeleton).
Mouse tissues (age P2) were extracted, homogenized in CelLytic buffer consisting of a mild detergent, bicine buffer, and 150 mM NaCl (Sigma-Aldrich) supplemented with protease inhibitors (Complete Mini; Roche Applied Science). The lysates were sonicated and cleared by centrifugation (1000 g for 10 minutes), and the resulting supernatants were assayed for protein (BCA Protein Assay; Pierce Biotechnology). […]
The degree of sialylation of two heavily sialylated marker proteins, PSA-NCAM and podocalyxin was evaluated. […]

Gne/Mnk protein = assay: Immunoblots of muscle and kidney extracts with anti-Gne/Mnk antibodies; format: in vivo, mouse
Text: as §2
Mouse tissues (age P2) were extracted, homogenized in CelLytic buffer consisting of a mild detergent, bicine buffer, and 150 mM NaCl (Sigma-Aldrich) supplemented with protease inhibitors (Complete Mini; Roche Applied Science). The lysates were sonicated and cleared by centrifugation (1000 g for 10 minutes), and the resulting supernatants were assayed for protein (BCA Protein Assay; Pierce Biotechnology). For the neuraminidase enzymatic treatments (FIG. 6E), protein homogenates ([…]) were incubated for 30 min at 37° C. with 1 mU/mg of neuraminidase (catalog no. N6514; Sigma-Aldrich). Equal amounts of protein ([…]) were electrophoresed on 4%-12% Tris-Glycine gels (Novex; Invitrogen), and electroblotted onto […] Hybond ECL nitrocellulose membranes (GE Healthcare). The membranes were blocked (10% fat-free milk) and incubated with primary antibodies followed by HRP-conjugated secondary antibodies (GE Healthcare). Results were visualized with ECL (ECL Western Blotting Detection Reagents; GE Healthcare) and exposure to CL-XPosure Film (Pierce Biotechnology). Densitometry was performed on the digital images obtained with a Kodak Image Station and software (PerkinElmer). The protein levels were normalized to those of β-actin to correct for differences in protein loading and/or transfer. […]

laminin-1 = assay: Immunoblots of kidney extracts with laminin-1 antibodies; format: in vivo, mouse; details: Gne^+/+ and Gne^M712T/M712T littermates
Text: as §2
Mouse tissues (age P2) were extracted, homogenized in CelLytic buffer consisting of a mild detergent, bicine buffer, and 150 mM NaCl (Sigma-Aldrich) supplemented with protease inhibitors (Complete Mini; Roche Applied Science). The lysates were sonicated and cleared by centrifugation (1000 g for 10 minutes), and the resulting supernatants were assayed for protein (BCA Protein Assay; Pierce Biotechnology). For the neuraminidase enzymatic treatments (FIG. 6E), protein homogenates (25 mg) were incubated for 30 min at 37° C. with 1 mU/mg of neuraminidase (catalog no. N6514; Sigma-Aldrich). […]

[4] = single dose of 0.142 g/kg/day; cited from earlier work
[5] = Tolerability and growth of ManNAc-treated mice; format: in vivo
Experimental: as §1

podocalyxin = assay: Immunoblots of kidney extracts with podocalyxin antibodies (sialylation status); format: in vivo, mouse; details: after ManNAc treatment, P2
Text: as §2
The lysates were sonicated and cleared by centrifugation (1000 g for 10 minutes), and the resulting supernatants were assayed for protein (BCA Protein Assay; Pierce Biotechnology). For the neuraminidase enzymatic treatments (FIG. 6E), protein homogenates (25 mg) were incubated for 30 min at 37° C. with 1 mU/mg of neuraminidase (catalog no. N6514; Sigma-Aldrich). Equal amounts of protein ([…]) were electrophoresed on 4%-12% Tris-Glycine gels (Novex; Invitrogen), and electroblotted onto […] Hybond ECL nitrocellulose membranes (GE Healthcare). […]

Gne^M712T/M712T mice [6] = assay: Rescue by ManNAc feeding: survival of homozygous mutant pups (ManNAc in drinking water of breeding pairs); format: in vivo, mouse
Text: Gne^M712T/M712T mice. Gne^M712T/M712T knockin mice were generated by targeting the M712T (ATG to ACG) mutation of exon 12 of the murine Gne gene (Gne, Uae1, GenBank NM_015828) (FIG. 2A). The nucleotide sequence for this Gne, Uae1 allele (GenBank NM_015828) without the mutation is shown below for easy reference (SEQ ID NO:3).
The mutant mice were maintained in the C57BL/6J background. Animals were housed in an accredited specific pathogen-free facility in accordance with accepted guidelines. Cages were ventilated in a temperature- and light-controlled environment (22° C., 30%-70% humidity, 12-hour light/12-hour dark cycle). The mice were fed irradiated chow (Prolab 5P75 Isopro 3000; PMI Nutrition International) and sterile water ad libitum. All euthanasia was performed by CO2 inhalation followed by cervical dislocation.
as §1
Differences between data groups were evaluated for significance using the 2-tailed Student's t test of unpaired data. For Mendelian distribution analysis, a goodness-of-fit (χ2) test was performed, while for comparisons of survival between treated and untreated mice of all genotypes (Gne^+/+, GneM^712T/+, and GneM^712T/M712T), a 2-tailed Fisher's exact test using a 2×3 table was employed. All data are presented as the mean±SD. A P value less than 0.05 was considered statistically significant.

[7] = 3.5 months of age, ManNAc until P21
[8] = ~1.0 g/kg/d in drinking water, mice

CC(=O)CCC(=O)N[C@@H]1C(O)O[C@H](CO)[C@@H](O)[C@@H]1O (stereo partly shown) [ManLev, N-levulinoylmannosamine]
incorporation of sialic acid analogs (SiaLev or SiaNAz) into cell surface glycoconjugates (cultured cells): incorporation of the downstream sialic acid analogs

CC(=O)N[C@H]1[C@@H](O)[C@H](O)[C@@H](CO)O[C@H]1O [ManNAc, N-acetyl-D-mannosamine]
filtration slits / open slit diaphragms (Gne^M712T/M712T mice [1]): greater number of open slit diaphragms; also recorded: improved
overall integrity of the GBM (Gne^M712T/M712T mice [1]): significantly improved
podocyte foot processes (fusion, flattening, formation) (Gne^M712T/M712T mice [1]): less fusion and flattening; also recorded: improved
kidney histology of Gne^M712T/M712T survivor (urinary space and tubules) (Gne^M712T/M712T mice [2]; [7]): mild red blood cell infiltrations
skeletal muscle histology of Gne^M712T/M712T survivor (Gne^M712T/M712T mice [2]; [7]): no structural or inflammatory abnormalities
cystic tubular dilatations in cortex and medulla (Gne^M712T/M712T mice [2]; age P6): fewer cystic tubular dilatations
kidney histology compared with untreated Gne^M712T/M712T mice at P2 (Gne^M712T/M712T mice [2]; age P6): significant histological improvement
abnormalities in liver, heart or skeletal muscle tissues (Gne^M712T/M712T mice [2]; age P6, treated Gne^M712T/M712T mice): no abnormalities
red blood cell infiltrates in tubules and Bowman space (Gne^M712T/M712T mice [2]; age P6, versus untreated at P2): reduced red blood cell infiltrates; also recorded: less severe
sialylation of hyposialylated cells [3]: became resialylated
Gne activity in Gne^M712T/M712T muscle, of untreated Gne^+/+ mean (Gne/Mnk epimerase; homozygous mutant skeletal muscle, after ManNAc (19.4% untreated), n=7, P=0.05): 31% (±8.4)
Gne activity in Gne^+/+ muscle, of untreated Gne^+/+ mean (Gne/Mnk epimerase; wild-type skeletal muscle, after ManNAc, n=3, P=0.2): 114% (±19.7)
PSA-NCAM expression in muscle and kidney upon treatment (PSA-NCAM; P2): no change
increase of PSA-NCAM signal intensity in Gne^M712T/M712T brain versus untreated (PSA-NCAM; brain extracts, P=0.08): 2%-28% and 2% to 28%
Gne/Mnk protein in Gne^M712T/M712T kidney compared with Gne^+/+ littermates (Gne/Mnk protein; after ManNAc (32.1% untreated), relative to β-actin, P=0.006): 62.2%
Gne/Mnk protein in Gne^M712T/M712T muscle compared with Gne^+/+ littermates (Gne/Mnk protein; after ManNAc (38.5% untreated), relative to β-actin, P=0.12): 68.8%
Gne/Mnk protein expression in Gne^M712T/M712T tissues versus untreated (Gne/Mnk protein; muscle and kidney, ManNAc feeding): increased
laminin-1 intensity / pattern in kidney without or with ManNAc treatment (laminin-1): No difference
safety in humans [4]: evidence of the safety
size of surviving Gne^M712T/M712T mice versus littermates ([5]; ManNAc ~1 g/kg/d): remained smaller than their littermates
weight of surviving Gne^M712T/M712T mice relative to wild-type littermates ([5]; ManNAc ~1.0 g/kg/day): 70%-100%
side effects [5, 8]: no side effects were attributed to the treatment
tolerability [5, 8]: well tolerated
sialylation of podocalyxin in Gne^M712T/M712T kidney (podocalyxin): markedly improved; also recorded: changed significantly
pups died at age P1-P3 (number) (Gne^M712T/M712T mice [6]; 1 mg/ml (~0.2 g/kg/d), 7 litters): 13
surviving homozygous Gne^M712T/M712T mice beyond age P3 (Gne^M712T/M712T mice [6]; 1 mg/ml (~0.2 g/kg/day) in drinking water, 51 offspring): no surviving homozygous
homozygous mutant pups died at age P1-P3 (number) (Gne^M712T/M712T mice [6]; 5 mg/ml (~1 g/kg/d), 13 litters): 14
Gne^M712T/M712T mice that died between P6 and P12, of the twelve that survived past P3 (Gne^M712T/M712T mice [6]; 5 mg/ml (~1.0 g/kg/day)): nine
Gne^M712T/M712T pups surviving beyond P3 (number) (Gne^M712T/M712T mice [6]; 5 mg/ml (~1.0 g/kg/day) in drinking water, 102 newborns, P=0.01 vs 1 untreated survivor): 12
Gne^M712T/M712T mice that survived past P21 (Gne^M712T/M712T mice [6]; 5 mg/ml (~1.0 g/kg/day), ManNAc ceased at P21): Two
myopathic features of the surviving Gne^M712T/M712T mouse (Gne^M712T/M712T mice [6]; 6 months old, ManNAc until P21): no obvious myopathic features
survival beyond P3, share of Gne^M712T/M712T pups (Gne^M712T/M712T mice [6]; ManNAc administration): 43%

[N-]=[N+]=NCC(=O)N[C@@H]1C(O)O[C@H](CO)[C@@H](O)[C@@H]1O (stereo partly shown) [ManNAz, N-azidoacetyl-mannosamine]
incorporation of sialic acid analogs (SiaLev or SiaNAz) into cell surface glycoconjugates (cultured cells): incorporation of the downstream sialic acid analogs
